# Test results as given in patent publication US10604512B2, “3-(1H-indol-2-yl)-1H-indazoles and therapeutic uses thereof” (Samumed, LLC, priority 2015, dated 2020).
# Tests used:
# IL-6 = assay: Inhibition of IL-6 in LPS-stimulated THP-1 human monocyte cells (HTRF); format: cell-based; conditions: for EC50: IL-6 inhibition, LPS-stimulated THP-1 cells, HTRF; for inhibition at 10 µM: THP-1, printed beside >10 μM EC50, top concentration 10 μM, meaning not given, read-out: percentage in parentheses after EC50 >10
# Summary of the method: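 THP-1 cells serum-reduced (1% FBS, 24 h), then 5000 cells/well preincubated 2 h with compound (10-point 1:3 series from 10 μM, 0.1% DMSO) before 500 ng/mL LPS for 22 h at 37 °C. Secreted IL-6 quantified by HTRF 665/620 ratio; DMSO-normalised duplicates fitted to four-parameter EC50; above 10 μM, % inhibition at 10 μM given.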
# SW480 colon cancer cells = assay: Cell viability assay (CellTiter-Blue) in SW480 colon cancer cells; format: cell-based; conditions: Homo sapiens, 96 h, four days; for inhibition at 10 µM: given where EC50 >10 μM, read-out: percent inhibition at 10 μM; for EC50: CellTiter-Blue
# Summary of the method: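 SW480 cells (~2×10^3 per well) were exposed to compound for four days at 37 °C/5% CO2, using 8-point 1:3 dilutions from 10 μM to 0.0045 μM in duplicate. Viability was read by resazurin reduction (CellTiter-Blue, ~3 h, Ex 560/Em 590 nm). EC50 came from non-linear regression; above 10 μM, percent inhibition at 10 μM is given.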
Structure (SMILES),EC50 (IL-6) [µM],inhibition at 10 µM (SW480 colon cancer cells) [%],EC50 (SW480 colon cancer cells) [µM],inhibition at 10 µM (IL-6) [%]
"CCC(=O)Nc1cncc(-c2ccc3[nH]nc(-c4cc5ccccc5[nH]4)c3c2)c1 [Compound 253, N-(5-(3-(1H-Indol-2-yl)-1H-indazol-5-yl)pyridin-3-yl)propionamide]",0.233,13.6,> 10,
"O=C(Cc1ccccc1)Nc1cncc(-c2ccc3[nH]nc(-c4cc5ccccc5[nH]4)c3c2)c1 [Compound 262, N-(5-(3-(1H-Indol-2-yl)-1H-indazol-5-yl)pyridin-3-yl)-2-phenylacetamide]",> 10,11.4,> 10,0
"O=C(Nc1cncc(-c2ccc3[nH]nc(-c4cc5ccccc5[nH]4)c3c2)c1)c1ccccc1 [Compound 263, N-(5-(3-(1H-Indol-2-yl)-1H-indazol-5-yl)pyridin-3-yl)benzamide]",> 10,2.9,> 10,0
"c1ccc2[nH]c(-c3n[nH]c4ccc(-c5cncc(CN6CCCCC6)c5)cc34)cc2c1 [Compound 267, 3-(1H-Indol-2-yl)-5-(5-(piperidin-1-ylmethyl)pyridin-3-yl)-1H-indazole]",1.73,7.8,> 10,
"CC(C)(C)CC(=O)Nc1cncc(-c2ccc3[nH]nc(-c4cc5ccccc5[nH]4)c3c2)c1 [Compound 268, N-(5-(3-(1H-Indol-2-yl)-1H-indazol-5-yl)pyridin-3-yl)-3,3-dimethylbutanamide]",> 10,12.4,> 10,0
"O=C(Nc1cncc(-c2ccc3[nH]nc(-c4cc5ccccc5[nH]4)c3c2)c1)C1CCC1 [Compound 273, N-(5-(3-(1H-Indol-2-yl)-1H-indazol-5-yl)pyridin-3-yl) cyclobutanecarboxamide]",> 10,17.8,> 10,44.3
"O=C(Nc1cncc(-c2ccc3[nH]nc(-c4cc5ccccc5[nH]4)c3c2)c1)C1CCCCC1 [Compound 275, N-(5-(3-(1H-Indol-2-yl)-1H-indazol-5-yl)pyridin-3-yl) cyclohexanecarboxamide]",> 10,9.5,> 10,32.5
"CC(C)CC(=O)Nc1cncc(-c2ccc3[nH]nc(-c4cc5c(-c6ccsc6)cccc5[nH]4)c3c2)c1 [Compound 282, 3-Methyl-N-(5-(3-(4-(thiophen-3-yl)-1H-indol-2-yl)-1H-indazol-5-yl)pyridin-3-yl)butanamide]",0.977,,0.18,
"CC(C)C(=O)Nc1cncc(-c2ccc3[nH]nc(-c4cc5c(-c6ccsc6)cccc5[nH]4)c3c2)c1 [Compound 289, N-(5-(3-(4-(Thiophen-3-yl)-1H-indol-2-yl)-1H-indazol-5-yl)pyridin-3-yl) isobutyramide]",> 10,,0.375,48.3
"c1ccc(-c2ccc3[nH]nc(-c4cc5c(-c6ccoc6)cccc5[nH]4)c3c2)nc1 [Compound 336, 3-(4-(Furan-3-yl)-1H-indol-2-yl)-5-(pyridin-2-yl)-1H-indazole]",0.09,,3.1,
"c1cncc(-c2ccc3[nH]nc(-c4cc5c(-c6cccs6)cccc5[nH]4)c3c2)c1 [Compound 340, 5-(Pyridin-3-yl)-3-(4-(thiophen-2-yl)-1H-indol-2-yl)-1H-indazole]",0.018,,0.371,
"c1csc(-c2cccc3[nH]c(-c4n[nH]c5ccc(-c6ccncc6)cc45)cc23)c1 [Compound 354, 5-(pyridin-4-yl)-3-(4-(thiophen-2-yl)-1H-indol-2-yl)-1H-indazole]",0.15,,8.93,
"CC(C)(C)C(=O)Nc1cncc(-c2ccc3[nH]nc(-c4cc5c(-c6cc(F)cc(CNS(C)(=O)=O)c6)cccc5[nH]4)c3c2)c1 [Compound 484, N-(5-(3-(4-(3-Fluoro-5-(methylsulfonamidomethyl)phenyl)-1H-indol-2-yl)-1H-indazol-5-yl)pyridin-3-yl)pivalamide]",> 10,37.5,> 10,24.2
"CS(=O)(=O)NCc1cc(F)cc(-c2cccc3[nH]c(-c4n[nH]c5ccc(-c6ccncc6)cc45)cc23)c1 [Compound 494, N-(3-Fluoro-5-(2-(5-(pyridin-4-yl)-1H-indazol-3-yl)-1H-indol-4-yl)benzyl) methane sulfonamide]",2.33,22.3,> 10,
"CC(C)CC(=O)Nc1cncc(-c2ccc3[nH]nc(-c4cc5ncccc5[nH]4)c3c2)c1 [Compound 506, N-(5-(3-(1H-Pyrrolo[3,2-b]pyridin-2-yl)-1H-indazol-5-yl)pyridin-3-yl)-3-methylbutanamide]",0.102,,0.486,
"O=C(Nc1cncc(-c2ccc3[nH]nc(-c4cc5ncccc5[nH]4)c3c2)c1)c1ccccc1 [Compound 515, N-(5-(3-(1H-Pyrrolo[3,2-b]pyridin-2-yl)-1H-indazol-5-yl)pyridin-3-yl) benzamide]",0.27,,1.09,
"c1cnc2cc(-c3n[nH]c4ccc(-c5cncc(CN6CCCCC6)c5)cc34)[nH]c2c1 [Compound 519, 5-(5-(Piperidin-1-ylmethyl)pyridin-3-yl)-3-(1H-pyrrolo[3,2-b]pyridin-2-yl)-1H-indazole]",0.097,,0.106,
"O=C(Nc1cncc(-c2ccc3[nH]nc(-c4cc5ncccc5[nH]4)c3c2)c1)C1CCC1 [Compound 525, N-(5-(3-(1H-Pyrrolo[3,2-b]pyridin-2-yl)-1H-indazol-5-yl)pyridin-3-yl) cyclobutanecarboxamide]",0.024,,0.547,
"Fc1cccc(-c2cccc3[nH]c(-c4n[nH]c5ccc(C6CCNCC6)cc45)cc23)c1 [Compound 533, 3-(4-(3-Fluorophenyl)-1H-indol-2-yl)-5-(piperidin-4-yl)-1H-indazole]",2.8,,3.84,
"Fc1ccc(-c2cccc3[nH]c(-c4n[nH]c5ccc(C6=CCNCC6)cc45)cc23)cc1 [Compound 550, 3-(4-(4-Fluorophenyl)-1H-indol-2-yl)-5-(1,2,3,6-tetrahydropyridin-4-yl)-1H-indazole]",> 10,,3.9,33.7
"Cc1ncc(-c2ccc3[nH]nc(-c4cc5c(-c6ccncc6)cccc5[nH]4)c3c2)n1C [Compound 601, 5-(1,2-Dimethyl-1H-imidazol-5-yl)-3-(4-(pyridin-4-yl)-1H-indol-2-yl)-1H-indazole]",4.17,,5.96,
"c1cc(N2CCCCC2)c2cc(-c3n[nH]c4ccc(-c5cncc(OC6CCCCC6)c5)cc34)[nH]c2c1 [Compound 635, 5-(5-(Cyclohexyloxy)pyridin-3-yl)-3-(4-(piperidin-1-yl)-1H-indol-2-yl)-1H-indazole]",> 10,45.7,> 10,22.6
"CN1CCN(c2cccc3[nH]c(-c4n[nH]c5ccc(-c6cncc(NC(=O)CC7CCNCC7)c6)cc45)cc23)CC1 [Compound 669, N-(5-(3-(4-(4-Methylpiperazin-1-yl)-1H-indol-2-yl)-1H-indazol-5-yl)pyridin-3-yl)-2-(piperidin-4-yl)acetamide]",> 10,12.2,> 10,25.3
"c1cc(-c2ccoc2)c2cc(-c3n[nH]c4ccc(-c5cncc(OC6CCNCC6)c5)cc34)[nH]c2c1 [Compound 716, 3-(4-(Furan-3-yl)-1H-indol-2-yl)-5-(5-(piperidin-4-yloxy)pyridin-3-yl)-1H-indazole]",> 10,,2.18,25.5
